Test [1] deals with T1, hEP2 (Homo sapiens (Human), UniProt P43116). Nature of the test: Radioligand binding ([3H]PGE2), HEK-293 cell membranes expressing EP2 receptor. The following applies: top number in Table 2. As to the method: (§1) HEK-293 cells stably expressing the human or feline FP receptor, or EP1, EP2, EP3, or EP4 receptors were washed with TME buffer, scraped from the bottom of the flasks, and homogenized for 30 sec using a Brinkman PT 10/35 polytron. TME buffer was added to achieve a final 40 ml volume in the centrifuge tubes (the composition of TME is 100 mM TRIS base, 20 mM MgCl2, […]; 10N HCl is added to achieve a pH of 7.4).
(§2) The cell homogenate was centrifuged at 19000 r.p.m. for 20 min at 4° C. using a Beckman Ti-60 rotor. The resultant pellet was resuspended in TME buffer to give a final 1 mg/ml protein concentration, as determined by Biorad assay. Radioligand binding competition assays vs. [^3H-]17-phenyl PGF2α, (5 nM) were performed in a 100 μl volume for 60 min. Binding reactions were started by adding plasma membrane fraction. The reaction was terminated by the addition of 4 ml ice-cold TRIS-HCl buffer and rapid filtration through glass fiber GF/B filters using a Brandel cell harvester. The filters were washed 3 times with ice-cold buffer and oven dried for one hour. Non-specific binding was determined with 10 uM unlabeled 17-phenyl PGF2α.
(§3) [^3H-] PGE2 (5 nM; specific activity 180 Ci mmol) was used as the radioligand for EP receptors. Binding studies employing EP1, EP2, EP3, EP4 were performed in duplicate in at least three separate experiments. A 200 μl assay volume was used. Incubations were for 60 min at 25° C. and were terminated by the addition of 4 ml of ice-cold 50 mM TRIS-HCl, followed by rapid filtration through Whatman GF/B filters and three additional 4 ml washes in a cell harvester (Brandel). Non-specific binding determined with 10^−5M of unlabeled PGE2.

Test [2] deals with T2, hEP4 (Homo sapiens (Human), UniProt P35408). Nature of the test: Radioligand binding ([3H]PGE2), HEK-293 cell membranes expressing EP4 receptor. The following applies: top number in Table 2. As to the method:
as §1, §2, §3

The next test has as its target hIP (Homo sapiens (Human), UniProt P43119). Nature of the test: Table 2 top number, hIP (radioligand binding per footnote). As to conditions: top number in Table 2.
Test [3] deals with T2, hEP4. Nature of the test: FLIPR calcium signal, HEK-293(EBNA) cells expressing hEP4/Gqs5. The class given is cell-based. As to conditions: bottom number in Table 2, read-out: hEP4 functional EC50. As to the method:
(§4) HEK-293(EBNA) cells, stably expressing one type or subtype of recombinant human prostaglandin receptors (prostaglandin receptors expressed: hDP/Gqs5; hEP1; hEP2/Gqs5; hEP3A/Gqi5; hEP4/Gqs5; hFP; hIP; hTP), were cultured in 100 mm culture dishes in high-glucose DMEM medium containing 10% fetal bovine serum, 2 mM 1-glutamine, 250 μg/ml geneticin (G418) and 200 μg/ml hygromycin B as selection markers, and 100 units/ml penicillin G, 100 μg/m streptomycin and 0.25 μg/m amphotericin B.
(§5) Cells were seeded at a density of 5×10^4 cells per well in Biocoat® Poly-D-lysine-coated black-wall, clear-bottom 96-well plates (Becton-Dickinson) and allowed to attach overnight in an incubator at 37° C. Cells were then washed two times with HBSS-HEPES buffer (Hanks Balanced Salt Solution without bicarbonate and phenol red, 20 mM HEPES, pH 7.4) using a Denley Cellwash plate washer (Labsystems). After 45 minutes of dye-loading in the dark, using the calcium-sensitive dye Fluo-4 AM at a final concentration of 2 μM, plates were washed four times with HBSS-HEPES buffer to remove excess dye leaving 100 μl in each well. Plates were re-equilibrated to 37° C. for a few minutes.
Cells were excited with an Argon laser at 488 nm, and emission was measured through a 510-570 nm bandwidth emission filter (FLIPR™, Molecular Devices, Sunnyvale, Calif.). […] The peak increase in fluorescence intensity was recorded for each well. On each plate, four wells each served as negative (HBSS-HEPES buffer) and positive controls (standard agonists: BW245C (hDP); PGE2 (hEP1; hEP2/Gqs5; hEP3A/Gqi5; hEP4/Gqs5); PGF2 (hFP); carbacyclin (hIP); U-46619 (hTP), depending on receptor). The peak fluorescence change in each drug-containing well was then expressed relative to the controls.
Compounds were tested in a high-throughput (HTS) or concentration-response (CoRe) format. In the HTS format, forty-four compounds per plate were examined in duplicates at a concentration of 10^−5 M. To generate concentration-response curves, four compounds per plate were tested in duplicates in a concentration range between 10^−5 and 10^−11 M. The duplicate values were averaged.

The target in the next test is hTP (Homo sapiens (Human), UniProt P21731). Nature of the test: Table 2 top number, hTP (radioligand binding per footnote). As to conditions: top number in Table 2.
A further test deals with hEP1 (Homo sapiens (Human), UniProt P34995). Nature of the test: Radioligand binding ([3H]PGE2), HEK-293 cell membranes expressing EP1 receptor. The following applies: top number in Table 2. As to the method: as §1, §2, §3
The target of a further test is hEP3D (Homo sapiens (Human), UniProt P43115). Nature of the test: Radioligand binding ([3H]PGE2), HEK-293 cell membranes expressing EP3 receptor. The following applies: top number in Table 2. As to the method: as §1, §2, §3
The target of another test is hEP3A (Homo sapiens (Human), UniProt P43115). Nature of the test: FLIPR calcium signal, HEK-293(EBNA) cells expressing hEP3A/Gqi5. The class given is cell-based. The following applies: for EC50: bottom number in Table 2, read-out: hEP3A functional EC50. As to the method: as §4, §5
Cells were excited with an Argon laser at 488 nm, and emission was measured through a 510-570 nm bandwidth emission filter (FLIPR™, Molecular Devices, Sunnyvale, Calif.). Drug solution was added in a 50 μl volume to each well to give the desired final concentration. The peak increase in fluorescence intensity was recorded for each well. On each plate, four wells each served as negative (HBSS-HEPES buffer) and positive controls (standard agonists: BW245C (hDP); PGE2 (hEP1; hEP2/Gqs5; hEP3A/Gqi5; hEP4/Gqs5); PGF2 (hFP); carbacyclin (hIP); U-46619 (hTP), depending on receptor). The peak fluorescence change in each drug-containing well was then expressed relative to the controls.
Compounds were tested in a high-throughput (HTS) or concentration-response (CoRe) format. In the HTS format, forty-four compounds per plate were examined in duplicates at a concentration of 10^−5 M. To generate concentration-response curves, four compounds per plate were tested in duplicates in a concentration range between 10^−5 and 10^−11 M. The duplicate values were averaged. In either, HTS or CoRe format each compound was tested on at least 3 separate plates using cells from different passages to give an n≧3.

The next test concerns the target hDP (Homo sapiens (Human), UniProt Q13258). Nature of the test: Table 2 top number, hDP (radioligand binding per footnote). The following applies: top number in Table 2.
The target of test [4] is T1, hEP2. Nature of the test: FLIPR calcium signal, HEK-293(EBNA) cells expressing hEP2/Gqs5. The class given is cell-based. As to conditions: bottom number in Table 2, read-out: hEP2 functional EC50. As to the method:
as §4
Cells were seeded at a density of 5×10^4 cells per well in Biocoat® Poly-D-lysine-coated black-wall, clear-bottom 96-well plates (Becton-Dickinson) and allowed to attach overnight in an incubator at 37° C. Cells were then washed two times with HBSS-HEPES buffer (Hanks Balanced Salt Solution without bicarbonate and phenol red, 20 mM HEPES, pH 7.4) using a Denley Cellwash plate washer (Labsystems). […]
Cells were excited with an Argon laser at 488 nm, and emission was measured through a 510-570 nm bandwidth emission filter (FLIPR™, Molecular Devices, Sunnyvale, Calif.). […] The peak increase in fluorescence intensity was recorded for each well. […] The peak fluorescence change in each drug-containing well was then expressed relative to the controls. […]

Structures are written as SMILES. Some results are limits rather than exact numbers.

T1 sequence (P43116 whole entry): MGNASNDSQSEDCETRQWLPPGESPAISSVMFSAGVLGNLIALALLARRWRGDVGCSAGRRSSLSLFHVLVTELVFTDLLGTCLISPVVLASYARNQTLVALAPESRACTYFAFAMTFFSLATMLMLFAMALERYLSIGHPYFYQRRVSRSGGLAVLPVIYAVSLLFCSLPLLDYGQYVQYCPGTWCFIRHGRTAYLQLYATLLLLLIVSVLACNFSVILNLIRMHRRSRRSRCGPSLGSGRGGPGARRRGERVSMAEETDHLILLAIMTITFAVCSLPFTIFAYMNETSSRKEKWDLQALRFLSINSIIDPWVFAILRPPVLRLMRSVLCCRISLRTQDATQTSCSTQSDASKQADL
T2 sequence (P35408 whole entry, looked up): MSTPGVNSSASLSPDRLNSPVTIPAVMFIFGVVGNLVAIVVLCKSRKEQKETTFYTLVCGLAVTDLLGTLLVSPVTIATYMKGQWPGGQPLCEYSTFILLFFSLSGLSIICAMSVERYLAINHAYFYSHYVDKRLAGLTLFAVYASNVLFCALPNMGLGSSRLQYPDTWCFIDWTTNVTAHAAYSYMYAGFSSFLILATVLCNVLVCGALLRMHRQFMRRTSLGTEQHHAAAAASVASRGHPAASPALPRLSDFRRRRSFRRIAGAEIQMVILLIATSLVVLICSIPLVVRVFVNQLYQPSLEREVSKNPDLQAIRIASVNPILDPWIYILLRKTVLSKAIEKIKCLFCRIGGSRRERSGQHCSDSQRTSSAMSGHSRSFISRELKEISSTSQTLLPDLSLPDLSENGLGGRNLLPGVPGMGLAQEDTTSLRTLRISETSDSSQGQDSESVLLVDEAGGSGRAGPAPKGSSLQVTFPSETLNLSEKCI
Sequence of hIP (P43119 whole entry): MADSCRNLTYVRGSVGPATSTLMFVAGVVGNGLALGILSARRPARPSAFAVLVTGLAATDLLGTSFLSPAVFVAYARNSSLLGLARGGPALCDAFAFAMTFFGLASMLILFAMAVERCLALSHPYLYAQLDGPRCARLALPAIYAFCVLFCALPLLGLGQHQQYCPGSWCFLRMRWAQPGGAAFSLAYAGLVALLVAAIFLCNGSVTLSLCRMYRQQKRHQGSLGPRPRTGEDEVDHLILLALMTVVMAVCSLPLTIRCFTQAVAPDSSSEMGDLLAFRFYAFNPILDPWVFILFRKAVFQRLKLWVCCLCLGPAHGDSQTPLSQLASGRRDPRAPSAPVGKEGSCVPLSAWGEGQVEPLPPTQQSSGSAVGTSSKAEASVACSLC
Sequence of hTP (P21731 whole entry): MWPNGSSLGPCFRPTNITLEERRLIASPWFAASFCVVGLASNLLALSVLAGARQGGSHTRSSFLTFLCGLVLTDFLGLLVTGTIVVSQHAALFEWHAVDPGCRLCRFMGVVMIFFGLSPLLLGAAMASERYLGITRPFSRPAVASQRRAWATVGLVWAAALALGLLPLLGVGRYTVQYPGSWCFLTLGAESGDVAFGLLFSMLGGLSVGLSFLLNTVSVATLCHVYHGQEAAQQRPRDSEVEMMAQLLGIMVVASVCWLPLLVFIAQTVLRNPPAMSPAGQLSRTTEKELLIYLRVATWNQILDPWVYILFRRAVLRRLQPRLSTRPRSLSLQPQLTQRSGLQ
Sequence of hEP3A (P43115 whole entry): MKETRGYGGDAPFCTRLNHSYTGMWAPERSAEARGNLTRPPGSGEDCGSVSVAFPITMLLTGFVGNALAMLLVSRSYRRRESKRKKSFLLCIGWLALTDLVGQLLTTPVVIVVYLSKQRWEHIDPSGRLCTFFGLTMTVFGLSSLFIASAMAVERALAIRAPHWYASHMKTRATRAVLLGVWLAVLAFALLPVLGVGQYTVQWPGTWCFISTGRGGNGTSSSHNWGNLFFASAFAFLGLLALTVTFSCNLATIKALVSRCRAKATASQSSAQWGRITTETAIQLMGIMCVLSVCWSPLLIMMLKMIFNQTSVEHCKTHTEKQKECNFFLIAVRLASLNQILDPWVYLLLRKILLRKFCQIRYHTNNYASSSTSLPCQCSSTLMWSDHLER
Sequence of hEP1 (P34995 whole entry): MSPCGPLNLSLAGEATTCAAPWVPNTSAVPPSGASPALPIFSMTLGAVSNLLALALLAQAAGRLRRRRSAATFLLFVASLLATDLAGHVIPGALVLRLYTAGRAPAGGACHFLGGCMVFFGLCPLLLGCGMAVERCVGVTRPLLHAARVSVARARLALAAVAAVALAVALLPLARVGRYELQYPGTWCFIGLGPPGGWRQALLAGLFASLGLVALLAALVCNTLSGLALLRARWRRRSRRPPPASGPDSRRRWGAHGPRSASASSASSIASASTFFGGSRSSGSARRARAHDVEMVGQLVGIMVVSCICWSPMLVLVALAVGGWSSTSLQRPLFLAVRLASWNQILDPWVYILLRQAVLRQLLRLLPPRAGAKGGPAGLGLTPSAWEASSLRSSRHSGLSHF
Sequence of hEP3D (P43115 other isoform, or with tags, fused parts or gaps): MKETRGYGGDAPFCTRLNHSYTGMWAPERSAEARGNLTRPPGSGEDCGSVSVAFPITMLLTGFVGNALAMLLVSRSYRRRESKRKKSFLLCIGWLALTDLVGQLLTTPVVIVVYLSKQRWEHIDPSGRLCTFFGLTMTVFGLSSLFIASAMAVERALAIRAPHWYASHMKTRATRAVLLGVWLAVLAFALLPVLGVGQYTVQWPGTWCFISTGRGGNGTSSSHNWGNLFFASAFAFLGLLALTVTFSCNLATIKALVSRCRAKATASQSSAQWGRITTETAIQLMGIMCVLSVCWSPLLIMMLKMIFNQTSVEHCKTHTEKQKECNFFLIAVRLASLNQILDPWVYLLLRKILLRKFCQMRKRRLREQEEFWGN
Sequence of hDP (Q13258 whole entry): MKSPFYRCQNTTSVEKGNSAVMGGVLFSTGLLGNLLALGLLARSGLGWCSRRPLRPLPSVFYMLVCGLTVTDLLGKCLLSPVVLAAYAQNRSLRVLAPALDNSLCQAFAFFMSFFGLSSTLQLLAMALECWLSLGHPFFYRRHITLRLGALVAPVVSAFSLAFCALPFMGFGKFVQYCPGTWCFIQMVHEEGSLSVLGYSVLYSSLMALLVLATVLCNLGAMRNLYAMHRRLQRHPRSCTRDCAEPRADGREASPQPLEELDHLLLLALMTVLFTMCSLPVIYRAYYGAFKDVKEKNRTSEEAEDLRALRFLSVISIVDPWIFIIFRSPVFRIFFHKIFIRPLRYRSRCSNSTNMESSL

The IC50 is the concentration that gives 50% inhibition. Turning to `COC(=O)CSCCCS[C@H]1C(=O)C(C)(C)[C@@H](O)[C@@H]1/C=C/C(O)CCc1sc2ccccc2c1Cl` (single isomer, unassigned) [Compound 21], on hEP2 [1], the hEP2 radioligand binding IC50 is > 10 µM. Also, on hEP4 [2], the 50% inhibitory concentration (IC50) stood at 0.098 µM.

By EC50 is commonly meant the concentration at which the effect is half-maximal. The compound `CC1(C)C(=O)[C@H](CC#CCCCC(=O)O)[C@@H](/C=C/C(O)CCc2sc3ccccc3c2Cl)[C@@H]1O` (single isomer, unassigned) [Compound 36] had a concentration for half-maximal inhibition (IC50) on hEP4 [2] of 0.2 µM. Besides, the hIP radioligand binding IC50 on hIP was > 10 µM. For the same compound, the 50% effective concentration (EC50) on hEP4 [3] is 0.066 µM.

Regarding `CC1(C)C(=O)[C@H](CC#CCCCC(=O)O)[C@@H](/C=C/C(O)CCc2sc3ccccc3c2Cl)[C@@H]1O` (single isomer, unassigned) [Compound 37], on hEP4 [2], the IC50 came to 0.1 µM. Besides, at hIP, the hIP radioligand binding IC50 was > 10 µM. Besides, on hEP4 [3], the EC50 was 0.032 µM.

Regarding `CC1(C)C(=O)[C@H](C/C=C\CCCC(=O)O)[C@@H](/C=C/C(O)CCc2sc3ccccc3c2Cl)[C@@H]1O` (single isomer, unassigned) [Compound 41], on hEP2 [1], the hEP2 radioligand binding IC50 was > 10 µM. The compound further yielded an IC50 at hEP4 [2] of 0.02 µM. Besides, the hTP radioligand binding IC50 on hTP was > 10 µM.

In the case of `CC1(C)C(=O)[C@H](C/C=C\CCCC(=O)O)[C@@H](/C=C/C(O)Cc2ccccc2)[C@@H]1O` (single isomer, unassigned) [Compound 46], the results for the IC50 at hEP1 and on hEP4 [2] were 0.29 µM and 0.004 µM, respectively. For the same compound, the hEP2 radioligand binding IC50 at hEP2 [1] was > 10 µM. At hEP3D, the hEP3D radioligand binding IC50 is > 10 µM. In addition, the values for the EC50 at hEP3A and on hEP4 [3] were 0.589 µM and 0.0004 µM, respectively.

Take `COC(=O)CCC/C=C\C[C@H]1C(=O)C(C)(C)[C@@H](O)[C@@H]1/C=C/C(O)CCc1ccccc1` (single isomer, unassigned) [Compound 50]: the IC50 is 0.638 µM on hEP1, 6.61 µM on hEP3D and 2.4 µM on hEP4 [2]. At hTP, the hTP radioligand binding IC50 is > 10 µM. Moreover, the hEP3A functional EC50 on hEP3A (bottom number in Table 2) was > 10 µM. Besides, on hEP4 [3], the 50% effective concentration (EC50) worked out at 3.16 µM.

For the compound `CCCCC[C@H](O)/C=C/[C@@H]1[C@@H](CC#CCCCC(=O)OC)C(=O)C(C)(C)[C@H]1O` [Compound 42, 7-[(1R,4S,5R)-4-Hydroxy-5-((E)-(S)-3-hydroxy-oct-1-enyl)-3,3-dimethyl-2-oxo-cyclopentyl]-hept-5-ynoic acid methyl ester], the 50% inhibitory concentration (IC50) on hEP3D and on hEP4 [2] was > 10 µM each time. The EC50 at hEP3A came out at 0.559 µM.

`CCCCC[C@H](O)/C=C/[C@@H]1[C@@H](CC#CCCCC(=O)O)C(=O)C(C)(C)[C@H]1O` [Compound 43, 7-[(1R,4S,5R)-4-Hydroxy-5-((E)-(S)-3-hydroxy-oct-1-enyl)-3,3-dimethyl-2-oxo-cyclopentyl]-hept-5-ynoic acid]: the half-maximal inhibitory concentration (IC50) on hEP1 is > 10 µM; at hEP3D, 1.7 µM; at hEP4 [2], 0.4 µM; on hIP it was 3.98 µM; on hTP it was 0.018 µM. Further, the figures for the EC50 at hEP3A and on hEP4 [3] were 0.011 µM and 0.063 µM, respectively.

On to `CCCCC[C@H](O)/C=C/[C@@H]1[C@@H](C/C=C\CCCC(=O)O)C(=O)C(C)(C)[C@H]1O` [Compound 44, (Z)-7-[(1R,4S,5R)-4-Hydroxy-5-((E)-(S)-3-hydroxy-oct-1-enyl)-3,3-dimethyl-2-oxo-cyclopentyl]-hept-5-enoic acid], for which the 50% inhibitory concentration (IC50) on hEP1 stood at 0.782 µM; on hEP2 [1], 1.5 µM; on hEP3D, 0.3 µM; at hEP4 [2] it was 0.0055 µM; at hIP it was 0.284 µM; at hTP, 0.018 µM. Moreover, the hDP radioligand binding IC50 on hDP is > 10 µM. Further, the concentration giving a half-maximal response (EC50) at hEP2 [4] is 0.944 µM; at hEP3A it was 0.0046 µM; at hEP4 [3], 0.0002 µM.

With `CCCCC[C@H](O)/C=C/[C@@H]1[C@@H](C/C=C\CCCC(=O)OC)C(=O)C(C)(C)[C@H]1O` [Compound 45, (Z)-7-[(1R,4S,5R)-4-Hydroxy-5-((E)-(S)-3-hydroxy-oct-1-enyl)-3,3-dimethyl-2-oxo-cyclopentyl]-hept-5-enoic acid methyl ester], the half-maximal inhibitory concentration (IC50) at hEP3D is > 10 µM; at hEP4 [2], 0.4 µM; on hTP, 0.631 µM. Further, the EC50 at hEP3A came out at 0.531 µM; on hEP4 [3] it was 0.051 µM.

Source of the values: US9156810B2, “Treatment of inflammatory bowel disease” (ALLERGAN, INC., priority 2003, dated 2015).
